Source: the supplement of paper PMC11061612

Assays:
Assay in all cases: Bliss excess, mean over the matrix (fraction); higher = more synergy
[1] = tested on: A4-Fuk (B-Lymphoblastic Leukemia)
In short: (§1)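 Bliss excess equals the observed combination effect minus the expected value EA + EB − EA·EB, where EA and EB are the effects of each agent alone. Combination Emax is the second-highest inhibition within the matrix. Inhibition was scaled from CellTiter-Glo 2.0 luminescence, with 0 set by vehicle wells and 1 by blank wells, after 72 hours of two-drug dosing of cells plated in 1536-well plates.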

[2] = tested on: ALL-SIL (T-Lymphoblastic Leukemia)
In short: as §1

[3] = tested on: CADO-ES1 (Ewing's Sarcoma)
In short: as §1

[4] = tested on: G-401 (Other Solid Carcinomas)
In short: as §1

[5] = tested on: HCC1500 (Breast Carcinoma)
In short: as §1

[6] = tested on: HCC2998 (Colorectal Carcinoma)
In short: as §1

Hey (Ovarian Carcinoma) = tested on: Hey (Ovarian Carcinoma)
In short: as §1

[7] = tested on: KMRC-1 (Kidney Carcinoma)
In short: as §1

[8] = tested on: ML-2 (Acute Myeloid Leukemia)
In short: as §1

[9] = tested on: MOLT-4 (T-Lymphoblastic Leukemia)
In short: as §1

[10] = tested on: MV-4-11 (Acute Myeloid Leukemia)
In short: as §1

[11] = tested on: Mo-T (Other Blood Carcinomas)
In short: as §1

[12] = tested on: NCI-H1355 (Lung Adenocarcinoma)
In short: as §1

[13] = tested on: NCI-H1838 (Lung Adenocarcinoma)
In short: as §1

[14] = tested on: NCI-H1993 (Lung Adenocarcinoma)
In short: as §1

[15] = tested on: NCI-H2122 (Lung Adenocarcinoma)
In short: as §1

[16] = tested on: NCI-H522 (Lung Adenocarcinoma)
In short: as §1

[17] = tested on: NCI-H650 (Lung Adenocarcinoma)
In short: as §1

[18] = tested on: OACM5-1 (Esophageal Adenocarcinoma)
In short: as §1

[19] = tested on: SKN (Other Solid Carcinomas)
In short: as §1

Structure (SMILES) | Bliss excess [1] | Bliss excess [2] | Bliss excess [3] | Bliss excess [4] | Bliss excess [5] | Bliss excess [6] | Bliss excess (Hey (Ovarian Carcinoma)) | Bliss excess [7] | Bliss excess [8] | Bliss excess [9] | Bliss excess [10] | Bliss excess [11] | Bliss excess [12] | Bliss excess [13] | Bliss excess [14] | Bliss excess [15] | Bliss excess [16] | Bliss excess [17] | Bliss excess [18] | Bliss excess [19]
Cn1cnc2c(F)c(Nc3ccc(Br)cc3Cl)c(C(=O)NOCCO)cc21 [Selumetinib] + C=CCn1c(=O)c2cnc(Nc3ccc(N4CCN(C)CC4)cc3)nc2n1-c1cccc(C(C)(C)O)n1 [AZD1775] (first compound max 10 µM, partner max 1 µM) | -0.0651 | -0.0934 | -0.114 | -0.0483 | -0.0261 | -0.0267 | -0.0363 | -0.0061 | -0.0186 | -0.02 | 0.0249 | -0.0318 | -0.0037 | -0.0506 | 0.0225 | 0.0552 | -0.059 | 0.0099 | -0.0964 | -0.0294
Cc1c2c(nn1C)CSCc1cc(n(C)n1)CSc1cc(c3ccccc3c1)OCCCc1c(C(=O)O)n(C)c3c-2c(Cl)ccc13 [AZD5991] + C[C@@H](Nc1cc(F)cc(F)c1)c1cc(C(=O)N(C)C)cc2c(=O)cc(N3CCOCC3)oc12 [AZD8186] (first compound max 1 µM, 7x7, partner max 3 µM) | -0.023 | -0.0301 | -0.0479 | -0.0579 | 0.0182 | 0.0026 | 0.0023 | -0.0264 | -0.0218 | 0.0193 | 0.0375 | -0.0239 | -0.064 | 0.0503 | 0.0246 | 0.0684 | 0.0196 | -0.0023 | 0.0078 | -0.0142
CC1(C)CCC(CN2CCN(c3ccc(C(=O)NS(=O)(=O)c4ccc(NCC5CCOCC5)c([N+](=O)[O-])c4)c(Oc4cnc5[nH]ccc5c4)c3)CC2)=C(c2ccc(Cl)cc2)C1 [Venetoclax] + C[C@@H]1COCCN1C2=NC(=NC(=C2)C3(CC3)[S@](=N)(=O)C)C4=C5C=CNC5=NC=C4 [AZD6738] (first compound max 1 µM, 7x7, partner max 10 µM) | 0.0028 | -0.0217 | 0.0118 | -0.0944 | 0.0413 | -0.0423 | -0.0378 | -0.0365 | 0.0694 | 0.0382 | -0.006 | -0.0373 | -0.0593 | -0.0508 | -0.0366 | -0.0137 | -0.0099 | -0.0839 | 0.0115 | -0.0654
C=CCn1c(=O)c2cnc(Nc3ccc(N4CCN(C)CC4)cc3)nc2n1-c1cccc(C(C)(C)O)n1 [AZD1775] + C[C@@H]1COCCN1C2=NC(=NC(=C2)C3(CC3)[S@](=N)(=O)C)C4=C5C=CNC5=NC=C4 [AZD6738] (first compound max 1 µM, partner max 10 µM) | -0.0203 | 0.044 | 0.0441 | -0.0293 | 0.0279 | 0.0923 | 0.0385 | -0.002 | 0.0095 | 0.0397 | -0.0103 | -0.0271 | 0.0055 | -0.0173 | -0.0727 | -0.0303 | 0.0006 | 0.0062 | 0.0994 | -0.0185
CC(=O)c1c(C)c2cnc(Nc3ccc(N4CCNCC4)cn3)nc2n(C2CCCC2)c1=O [Palbociclib] + CC1(C)CCC(CN2CCN(c3ccc(C(=O)NS(=O)(=O)c4ccc(NCC5CCOCC5)c([N+](=O)[O-])c4)c(Oc4cnc5[nH]ccc5c4)c3)CC2)=C(c2ccc(Cl)cc2)C1 [Venetoclax] (first compound max 10 µM, 7x7, partner max 1 µM) | -0.0926 | 0.0428 | -0.177 | 0.0529 | -0.0899 | -0.0212 | 0.0511 | -0.0653 | 0.0634 | -0.0654 | -0.0213 | -0.0648 | -0.0031 | 0.0042 | 0.0108 | -0.0327 | -0.0428 | -0.0508 | 0.108 | -0.0402
C=CCn1c(=O)c2cnc(Nc3ccc(N4CCN(C)CC4)cc3)nc2n1-c1cccc(C(C)(C)O)n1 [AZD1775] + O=C(c1cc(Cc2n[nH]c(=O)c3ccccc23)ccc1F)N1CCN(C(=O)C2CC2)CC1 [Olaparib] (first compound max 1 µM, partner max 10 µM) | -0.0794 | -0.0303 | 0.0402 | -0.0999 | 0.0158 | -0.057 | -0.0327 | -0.0224 | 0.0099 | 0.0101 | 0.0445 | -0.0418 | -0.0671 | -0.0774 | -0.0631 | -0.0522 | 0.0441 | -0.0532 | -0.0363 | -0.0048
CC1(C)CCC(CN2CCN(c3ccc(C(=O)NS(=O)(=O)c4ccc(NCC5CCOCC5)c([N+](=O)[O-])c4)c(Oc4cnc5[nH]ccc5c4)c3)CC2)=C(c2ccc(Cl)cc2)C1 [Venetoclax] + Cn1cnc2c(F)c(Nc3ccc(Br)cc3Cl)c(C(=O)NOCCO)cc21 [Selumetinib] (first compound max 1 µM, 7x7, partner max 3 µM) | 0.0163 | 0.0035 | -0.0596 | -0.0264 | -0.023 | -0.0065 | -0.0238 | -0.0344 | 0.0747 | 0.021 | -0.0022 | 0.021 | -0.032 | -0.0013 | -0.0358 | 0.0375 | -0.0215 | -0.0217 | 0.0243 | -0.0664
COc1nnc2ccc(N3CCC(c4ccc(OCCN5CCN(C)C(=O)[C@H]5C)cc4)CC3)nn12 [AZD5153] + C[C@@H]1COCCN1C2=NC(=NC(=C2)C3(CC3)[S@](=N)(=O)C)C4=C5C=CNC5=NC=C4 [AZD6738] (first compound max 1 µM, 7x7, partner max 10 µM) | -0.117 | 0.079 | -0.0881 | -0.0078 | 0.0792 | 0.0607 | -0.0048 | 0.0195 | -0.0116 | 0.0394 | 0.0009 | -0.0184 | -0.006 | 0.0023 | -0.0462 | -0.0163 | -0.0075 | 0.0125 | 0.0593 | 0.0365
CC1(C)CCC(CN2CCN(c3ccc(C(=O)NS(=O)(=O)c4ccc(NCC5CCOCC5)c([N+](=O)[O-])c4)c(Oc4cnc5[nH]ccc5c4)c3)CC2)=C(c2ccc(Cl)cc2)C1 [Venetoclax] + C=CCn1c(=O)c2cnc(Nc3ccc(N4CCN(C)CC4)cc3)nc2n1-c1cccc(C(C)(C)O)n1 [AZD1775] (first compound max 1 µM, partner max 1 µM) | -0.0009 | 0.0792 | -0.0626 | -0.0898 | 0.114 | -0.0423 | -0.0821 | -0.0126 | -0.0553 | 0.117 | -0.072 | -0.0213 | 0.0069 | -0.0334 | 0.0027 | -0.0409 | 0.0162 | -0.0422 | -0.056 | 0.0355
COc1nnc2ccc(N3CCC(c4ccc(OCCN5CCN(C)C(=O)[C@H]5C)cc4)CC3)nn12 [AZD5153] + Cn1cnc2c(F)c(Nc3ccc(Br)cc3Cl)c(C(=O)NOCCO)cc21 [Selumetinib] (first compound max 1 µM, 7x7, partner max 10 µM) | -0.0175 | -0.0303 | -0.0469 | -0.0761 | 0.0011 | 0.0118 | -0.0092 | -0.0365 | 0.075 | -0.0161 | 0.0309 | -0.0656 | 0.0212 | 0.03 | -0.0228 | 0.0659 | -0.042 | 0.0339 | -0.0306 | -0.0084
CC1(C)CCC(CN2CCN(c3ccc(C(=O)NS(=O)(=O)c4ccc(NCC5CCOCC5)c([N+](=O)[O-])c4)c(Oc4cnc5[nH]ccc5c4)c3)CC2)=C(c2ccc(Cl)cc2)C1 [Venetoclax] + COc1cc(Nc2ncc3c(n2)-c2ccc(Cl)cc2C(c2c(F)cccc2OC)=NC3)ccc1C(=O)O [Alisertib] (first compound max 1 µM, 7x7, partner max 10 µM) | -0.026 | 0.0202 | 0.032 | -0.0135 | 0.141 | 0.0056 | -0.0449 | -0.012 | 0.13 | -0.0938 | 0.0134 | 0.0928 | -0.0205 | -0.0183 | -0.029 | -0.0572 | 0.0305 | -0.0361 | 0.0758 | -0.0051
CC1(C)CCC(CN2CCN(c3ccc(C(=O)NS(=O)(=O)c4ccc(NCC5CCOCC5)c([N+](=O)[O-])c4)c(Oc4cnc5[nH]ccc5c4)c3)CC2)=C(c2ccc(Cl)cc2)C1 [Venetoclax] + CN(C)CCCOc1ccc(-c2ccc3ncc4c(c3c2)n(C2CCOCC2)c(=O)n4C)cn1 [AZD0156] (first compound max 1 µM, 7x7, partner max 1 µM) | 0.0004 | -0.0012 | -0.0204 | -0.0712 | 0.0766 | -0.0292 | -0.0255 | -0.0466 | -0.0728 | 0.0196 | -0.0446 | -0.0469 | -0.0429 | 0.0303 | -0.0681 | 0.0112 | -0.0134 | -0.0194 | -0.0017 | -0.0205
